From patent US12433864B2, “5,6-diHETE lactone for treatment of microvascular dysfunction” (MIGAL GALILEE RESEARCH INSTITUTE LTD., priority 2019, dated 2025)

How the values were obtained:
[1] = target: T1, KCa2.3 (SK3) calcium-activated potassium channel (human KCNN3 gene) expressed in HEK293 cells (Homo sapiens, UniProt Q9UGI6); assay: Thallium flux assay, agonist effect on SK3 channel; format: cell-based
T1 construct: expressed in transfected cells
Experimental: (§1) Potassium channels genes were expressed in HEK293 or CHO cells (see Table 1). SspI or PvuI enzymes were used to linearize pcDNA3.1 plasmid (Thermo Fisher). The plasmid was stably transfected by Lonza Nucleofector. The transfection efficiency was >80% as validated by expression (western blot) and activation (patch clamp and membrane potential detection) of the channels.
(§2) Functional activity of voltage-gated potassium channels was conducted using a potassium dye (Thallium flux assay, Molecular Devices) using a Fluorescence Imaging Plate Reader (FLIPRTETRA™) instrument, according to the manufacturer's instructions. Cells were plated in 384-well black wall, flat clear bottom microtiter plates (BD Biocoat Poly-D Lysine Multiwell Cell Culture Plate) at 15,000 to 30,000 cells per well. Cells were incubated at 37° C. overnight or until cells reach sufficient density in the wells (near confluent monolayer) to use in fluorescence assays. A typical sequence is to record a baseline during the pre-incubation period (first addition of test article before stimulation), followed by activation in the stimulus buffer. For each addition, the first 60 seconds of data are acquired at the maximum rate (1 sample/second) and for the remaining 9-19 minutes (depending on the recording time of each addition); data are sampled every 5 seconds.
(§3) Accordingly, the objective of this study was to evaluate the agonist effects in vitro of the 5,6-diHETE lactone on two cloned human channels stably expressed in HEK-293 or CHO cells. The assay was performed with a thallium flux assay (FLIPR® Potassium Assay, Molecular Devices) according to the manufacturer's instructions. Briefly, cells were plated in 384-well black wall, flat clear bottom microtiter plates (BD Biocoat Poly-D-Lysine Multiwell Cell Culture Plate) at 15,000 to 30,000 cells per well. Cells were incubated at 37° C. overnight or until cells reach sufficient density in the wells (near confluent monolayer) to use in fluorescence assays. Dye-loading: Growth medium was removed and replaced with dye-loading buffer for 60 minutes at room temperature (protected from light). Agonist Effect: 5 repetitions of (5 μL) test, and vehicle or control solutions (assay buffer=0.3% DMSO) in K^+-free buffer with 5 mM Tl^+ was added to each well for ˜5 minutes. The test was 5,6-diHETE lactone (at eight concentrations: 0.05, 0.15, 0.3, 0.65, 1.25, 2.5, 5, and 10 μM, n=4). The agonist effects of the test article on the potassium channels was evaluated during this period by using a Fluorescence Imaging Plate Reader (FLIPRTETRA™) instrument.
(§4) To calculate the effect, the signal elicited in the presence of a known agonist, (1 μM A-23187 for SK3 and 10 μM NS309 for IK) with 5 mM thallium was set to 100% activation and the signal in the presence of the vehicle control (assay buffer+0.3% DMSO) was set to 0% activation. EC50 was calculated using GraphPad prism 5 software using nonlinear regression fit formula assuming a simple binding model.

[2] = test system: Sprague-Dawley 5/6Nx rats; assay: Direct blood pressure measurement in 5/6Nx rats after acute injection; format: in vivo, rat; conditions: 0.3 mg/kg i.v.
Experimental: Direct blood pressure measurements—For direct blood pressure (BP) evaluation, Sprague-Dawley 5/6Nx rats were deeply anesthetized by an injection of 87 mg/kg ketamine and 13 mg/kg xylazine (intramuscular) mixture. Next, the rats were instrumented with a venous line and an arterial line. Specifically, using 26G i.v. cannula (BD Neoflon, Helsinborg, Sweden) we punctured one of the tail veins, and installed the cannula. Next, 1 ml of saline heparin (500 IU/ml) mixture was administered to avoid blood clotting. Concomitantly, we installed the arterial line, after a neck incision we bluntly exposed the right carotid and ligated it distally. Then the artery was clamped proximally and incised between the ligation and the clamp. A 100 PE tube was advanced into the artery and tightened in it by second ligature aimed to avoid blood leakage, and then we removed the arterial clamp. The external tube was attached to a Luer stopcock valve, through which saline could be injected, blood withdrawn and to be connected to a pressure transducer.
Upon connecting and stabilization, signals were continuously sampled at a sampling rate of 200 samples/sec by the MPVS-300 system, recorded.
Basal BP was recorded for 10 min, after which time 0.5 ml 5,6-diHETE lactone (0.3 mg/kg and 3 mg/kg) dissolved in saline+DMSO (9:1) were injected through the venous line, and BP was recorded for additional 10 min after injection. For control, two distinct, known BP lowering agents were used consecutively, labetalol (10 mg/kg) a known a and p adrenergic inhibitor, and amlodipine (1.5 mg/kg) a calcium channel blocker (each by 0.5 ml venous injection). BP was recorded for additional 10 min after each injection. Specifically, after lactone effect recording labetalol was administered and 10 min later the amlodipine. We terminated the experiment by venous administration of 1M KCl overdose, until the heart stopped.

[3] = target: T2, KCa3.1 (IK) calcium-activated potassium channel (human KCNN4 gene) expressed in CHO cells (Homo sapiens, UniProt O15554); assay: Thallium flux assay, agonist effect on IK channel; format: cell-based; conditions: for Normalized % Activation: IK
T2 construct: expressed in transfected cells
Experimental: as §1, §2, §3, §4

rat mesenteric arteries = assay: Relaxation of rat mesenteric arteries from NT and 5/6Nx rats (wire myograph); conditions: for % relaxation (relative to papaverine): 10^−6M, n=11

## CCC=CCC=CCC=CCC=CCC(O)C1CCCC(=O)O1 (racemic) [5,6-diHETE lactone, 5,6 dihydroxyeicosatetraenoic acid (5,6-diHETE) lactone]
[1]; HEK293 cells, 100% = 1 μM A-23187, read-out: EC50, SK3 channel activation
  EC50: 9.99 µM
[1]; SK3, 0.05 μM
  Normalized % Activation: 0.12%
[1]; SK3, 0.15 μM
  Normalized % Activation: 0.35%
[1]; SK3, 0.3 μM
  Normalized % Activation: 0.95%
[1]; SK3, 0.65 μM
  Normalized % Activation: 3.25%
[1]; SK3, 1.25 μM
  Normalized % Activation: 10.16%
[1]; SK3, 2.5 μM
  Normalized % Activation: 25.36%
[1]; SK3, 5 μM
  Normalized % Activation: 43.17%
[1]; SK3, 10 μM
  Normalized % Activation: 73.65%
[2]
  percent reduction of SBP from baseline: about 20%
[2]; baseline 188.0±5.5 mmHg, 3 rats
  systolic blood pressure (SBP) upon injection: 162.5±12.3 mmHg
[3]; CHO cells, 100% = 10 μM NS309, read-out: EC50, IK channel activation
  EC50: 2.65 µM
[3]; 0.05 μM
  Normalized % Activation: −0.13%
[3]; 0.15 μM
  Normalized % Activation: −0.03%
[3]; 0.3 μM
  Normalized % Activation: 0.2%
[3]; 0.65 μM
  Normalized % Activation: 1.03%
[3]; 1.25 μM
  Normalized % Activation: 6.06%
[3]; 2.5 μM
  Normalized % Activation: 44.2%
[3]; 5 μM
  Normalized % Activation: 90%
[3]; 10 μM
  Normalized % Activation: 98.19%
Rat mesenteric arteries; 5/6Nx vessels
  % relaxation (relative to papaverine): 73.3±20.2%
Rat mesenteric arteries; NT vessels
  % relaxation (relative to papaverine): 58.6±25.0%
Rat mesenteric arteries; lactone 1 μmol/L, TRAM-34 1 μmol/L and apamin 1 μmol/L, p<0.01
  effect of pre-treatment with TRAM-34 and apamin on induced relaxation: significantly attenuated
